The values that follow come from patent publication US20240238426A1, “PROTEIN ACYLATION MODULATION BY HETEROBIFUNCTIONAL MOLECULES” (THE SCRIPPS RESEARCH INSTITUTE, priority 2021, published 2024).

Assay [1] has as its system p21 (CDKNIA), PUMA, MDM2, and GLS2. Briefly: Immunoblot of p53 target gene expression in FKBP12^F36V-p53 H1299 cells. Format: cell-based, Human. The settings on record: 8 hr; for effect of co-treatment on AceTAG-1 induced p21 expression: 3 μM AceTAG-1 with 10 μM A485 or 50 μM FKBP12^F36V-binding ligand, FIG. 7E. As to the method: (§1) Immunoblotting: Cells were harvested in cold DPBS by scraping and washed with cold DPBS twice. Cell pellets were resuspended in DPBS supplemented with 5 mM sodium butyrate, 20 mM Nicotinamide, and 1X Halt Protease Inhibitor Cocktail and lysed by sonication (15 ms on, 40 ms off, 15% amplitude, 1s total on x 3). Protein concentration was determined using DC Protein Assay (Bio-Rad) and absorbance read using a CLARIOstar plate reader following manufacturer's instructions. Samples with equal protein content were boiled in 4X SDS gel loading buffer for 10 min. Proteins were separated by 10%, 12.5%, or 15% SDS-polyacrylamide gel electrophoresis and transferred to PVDF membranes using Trans-Blot Turbo RTA Mini […] LF PVDF Transfer Kit (Bio-Rad). Membranes were incubated for 1 h at room temperature with blocking buffer, followed by incubating overnight at 4° C. with primary antibodies. After washing in TBST, the secondary antibodies were incubated with the membranes at room temperature for 1 h. The membranes were washed with TBST for three times and visualized on a Bio-Rad ChemiDoc MP Imaging System with Clarity Max Western ECL substrate (Bio-Rad) or SuperSignal West Femto Chemiluminescent substrate proprietary luminol and peroxide solution kit (Thermo Scientific Pierce).
In general terms: In western blotting, separated proteins are transferred to a membrane and probed.

In a further assay the target is T1, H3.3-FKBP12^F36V (Homo sapiens, UniProt P62942+Q09472, F37V).
T1 construct: expressed in transfected cells
T1 sequence (P62942 2-108 F37V limits assumed): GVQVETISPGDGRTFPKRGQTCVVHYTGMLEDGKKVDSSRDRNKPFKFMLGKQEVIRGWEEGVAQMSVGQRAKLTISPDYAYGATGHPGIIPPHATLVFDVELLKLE
T1 sequence (Q09472 2-2414 limits assumed, stated change not applied): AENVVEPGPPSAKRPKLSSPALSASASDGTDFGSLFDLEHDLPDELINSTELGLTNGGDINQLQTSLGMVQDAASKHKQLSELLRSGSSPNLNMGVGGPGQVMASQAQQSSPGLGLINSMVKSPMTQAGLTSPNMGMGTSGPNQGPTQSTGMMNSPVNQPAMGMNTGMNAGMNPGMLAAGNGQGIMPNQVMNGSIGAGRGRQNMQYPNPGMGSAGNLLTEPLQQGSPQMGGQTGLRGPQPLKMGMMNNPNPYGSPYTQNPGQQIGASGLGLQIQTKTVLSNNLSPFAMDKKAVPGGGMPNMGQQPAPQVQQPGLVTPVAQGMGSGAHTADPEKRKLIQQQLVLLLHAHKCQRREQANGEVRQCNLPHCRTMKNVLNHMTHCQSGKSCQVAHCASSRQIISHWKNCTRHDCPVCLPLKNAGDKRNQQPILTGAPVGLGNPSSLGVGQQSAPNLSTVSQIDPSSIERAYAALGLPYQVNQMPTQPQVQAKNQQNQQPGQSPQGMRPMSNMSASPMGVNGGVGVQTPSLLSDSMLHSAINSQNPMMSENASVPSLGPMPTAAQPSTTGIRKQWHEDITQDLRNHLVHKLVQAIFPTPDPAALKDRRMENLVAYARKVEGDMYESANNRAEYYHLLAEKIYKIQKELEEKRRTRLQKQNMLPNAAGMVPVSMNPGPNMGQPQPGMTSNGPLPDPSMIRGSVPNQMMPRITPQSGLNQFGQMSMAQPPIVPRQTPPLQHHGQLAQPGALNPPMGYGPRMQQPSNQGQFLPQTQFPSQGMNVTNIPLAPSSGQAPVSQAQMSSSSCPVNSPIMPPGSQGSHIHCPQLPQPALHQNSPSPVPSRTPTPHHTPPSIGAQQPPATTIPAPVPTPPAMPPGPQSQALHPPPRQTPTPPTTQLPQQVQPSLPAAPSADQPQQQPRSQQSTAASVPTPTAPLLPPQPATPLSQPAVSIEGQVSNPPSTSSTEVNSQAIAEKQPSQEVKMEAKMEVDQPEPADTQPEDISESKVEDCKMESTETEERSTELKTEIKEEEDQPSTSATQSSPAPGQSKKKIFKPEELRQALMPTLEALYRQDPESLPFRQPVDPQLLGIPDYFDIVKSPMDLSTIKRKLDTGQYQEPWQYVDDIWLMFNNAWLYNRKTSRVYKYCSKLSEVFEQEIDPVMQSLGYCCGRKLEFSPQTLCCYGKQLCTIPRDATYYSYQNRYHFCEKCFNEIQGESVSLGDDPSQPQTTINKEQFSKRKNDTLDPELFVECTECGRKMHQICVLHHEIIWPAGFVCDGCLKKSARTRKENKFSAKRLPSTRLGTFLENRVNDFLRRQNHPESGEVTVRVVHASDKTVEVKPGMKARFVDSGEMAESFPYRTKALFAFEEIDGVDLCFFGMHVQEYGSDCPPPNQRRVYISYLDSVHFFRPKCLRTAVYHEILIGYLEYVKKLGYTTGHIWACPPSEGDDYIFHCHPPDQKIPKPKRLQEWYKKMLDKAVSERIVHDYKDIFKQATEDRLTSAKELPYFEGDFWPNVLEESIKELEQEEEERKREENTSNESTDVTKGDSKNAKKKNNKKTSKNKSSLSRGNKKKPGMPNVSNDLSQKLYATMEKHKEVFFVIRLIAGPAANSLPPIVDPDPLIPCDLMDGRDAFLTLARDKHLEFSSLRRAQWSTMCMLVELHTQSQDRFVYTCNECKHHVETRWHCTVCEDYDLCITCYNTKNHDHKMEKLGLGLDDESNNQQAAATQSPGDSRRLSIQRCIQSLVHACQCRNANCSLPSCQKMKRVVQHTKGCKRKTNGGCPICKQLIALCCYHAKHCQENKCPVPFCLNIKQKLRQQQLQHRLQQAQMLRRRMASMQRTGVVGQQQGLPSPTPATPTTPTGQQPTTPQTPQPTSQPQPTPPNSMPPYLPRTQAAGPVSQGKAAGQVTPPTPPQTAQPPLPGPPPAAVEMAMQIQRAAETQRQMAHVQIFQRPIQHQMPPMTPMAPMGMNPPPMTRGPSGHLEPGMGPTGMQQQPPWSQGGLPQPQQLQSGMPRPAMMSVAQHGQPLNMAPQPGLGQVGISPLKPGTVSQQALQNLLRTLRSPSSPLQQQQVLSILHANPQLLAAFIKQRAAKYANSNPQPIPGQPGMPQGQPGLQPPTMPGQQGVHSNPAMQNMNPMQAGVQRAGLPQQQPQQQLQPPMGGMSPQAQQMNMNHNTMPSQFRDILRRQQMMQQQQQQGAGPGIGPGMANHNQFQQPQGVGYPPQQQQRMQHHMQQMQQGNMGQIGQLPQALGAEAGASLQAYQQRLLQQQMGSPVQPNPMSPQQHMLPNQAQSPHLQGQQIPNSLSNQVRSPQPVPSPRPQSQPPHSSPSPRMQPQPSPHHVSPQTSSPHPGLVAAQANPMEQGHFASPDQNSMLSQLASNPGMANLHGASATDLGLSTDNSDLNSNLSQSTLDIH
Briefly: Immunoblot analysis of H3.3-FKBP12^F36V acetylation in HeLa cells. Type of assay: cell-based. The following applies: for acetylation of H3.3: HeLa cells, FIG. 8. The method, then:
(§2) Lentivirus Production and Transduction: Lentiviral production was performed using HEK293T cells, which were co-transfected with pMD2.G (Addgene, #12259), psPAX2 (Addgene, #12260), and AceTAG lentiviral plasmids using PEI (Polysciences Inc). Viral particles were collected 72 h after transfection and filtered through a […] membrane. A range of dilutions of the lentivirus in DMEM complete and 10 μg/mL polybrene were added to HeLa, H1299, or HeLa RelA KO cell lines. Transduced cells were selected with 1 μg/mL or 2 μg/mL puromycin.
as §1

The subject of assay [2] is T2, FKBP12^F36V-p53 (Homo sapiens, F37V).
T2 construct: expressed in transfected cells
The experiment in a line: Immunoblot analysis of FKBP12^F36V-p53 acetylation in H1299 cells. Format: cell-based. The following applies: 625 nM AceTAG-1 with 50 μM FKBP ligand or 1 μM A485, 2 hr, FIG. 6D. As to the method:
as §2, §1

For assay [3], the system named is T3, FKBP12^F36V-RelA (Homo sapiens, F37V).
T3 construct: expressed in transfected cells
T3 sequence (P62942 2-108 F37V limits assumed): as the sequence (P62942 2-108 F37V limits assumed) above
T3 sequence (Q09472 2-2414 limits assumed, stated change not applied, further chain): as the sequence (Q09472 2-2414 limits assumed, stated change not applied) above
Briefly: Immunoblot analysis of FKBP12^F36V-RelA acetylation in RelA-/- HeLa cells. The following applies: 625 nM AceTAG-1 with 50 μM FKBP ligand or 1 μM A485, 2 hr, FIG. 6B. Type of assay: cell-based. As to the method:
as §2, §1

Assay [4] relates to H3.3-FKBP12^F36V HeLa cells. Briefly: Quantitative acetylproteomics of H3.3-FKBP12^F36V HeLa cells. Type of assay: cell-based, Human. The following applies: 2 μM SAHA, FIG. 5E. As to the method:
Sample preparation: Frozen cell pellets were thawed on ice and lysed in a buffer containing 50 mM Tris-HCl (pH 7.5), 150 mM NaCl, 1 mM EDTA, 1% NP-40, 0.1% sodium deoxycholate, 5 mM sodium butyrate, 10 mM nicotinamide and 1X Pierce™ protease inhibitor cocktail. Cells were sonicated to ensure complete lysis, mixed with 5 M NaCl at a ratio of 1:10 with sample volume and incubated on ice for 15 min to release chromatin-bound proteins. Cell lysates were then sonicated again to shear genomic DNA. Cellular debris was cleared by centrifugation at 16,000 g for 20 min at 4° C., protein concentration was determined using a Pierce™ BCA assay and ˜10 mg of protein was aliquoted for acetyl-proteomic analysis. Proteins were denatured with 8 M urea in 50 mM HEPES, reduced with 5 mM dithiothreitol for 30 min at 56° C., then alkylated with 5 mM iodoacetamide for 20 min in the dark at RT. Following alkylation, proteins were precipitated using chloroform-methanol as previously described, and protein pellets were dried at 56° C. for 15 min. Proteins pellets were resuspended in 1 M urea in 50 mM HEPES and digested in a two-step process with LysC and trypsin as previously described. Digested peptides were desalted using Phenomenex Strata-X polymeric reverse phase extraction cartridges using the following protocol. Cartridges were conditioned with 1 mL 100% acetonitrile, 1 mL 80% acetonitrile/0.5% AA, and 1 mL 0.1% TFA. Peptides were then loaded on to the cartridge at a reduced flow rate and desalted with 5 mL 0.1% TFA followed by 1 mL 0.5% AA. Desalted peptides were eluted using 1 mL 40% acetonitrile/0.5% AA followed by 1 mL 80% acetonitrile/0.5% AA and lyophilized. Digested peptides were quantified using the Pierce™ Quantitative Colorimetric Peptide Assay and […] was aliquoted from each for total protein analysis while the remaining peptide was lyophilized and retained for acetyl-peptide enrichment.
Acetyl-peptide Enrichment: Acetyl-peptides were enriched using the PTMScan® Acetyl-Lysine Motif [Ac-K] Kit according to manufacturer instructions. […]

Assay [5] concerns the target 6xHis-p300-BRD (active motif #31372) (UniProt Q09472). Briefly: AlphaScreen, GST-FKBP12^F36V and 6xHis-p300-BRD with a titration of the small molecule AceTAG-1; bell-shaped curve.

T2 sequence (P62942 2-108 F37V limits assumed): as the sequence (P62942 2-108 F37V limits assumed) above
T2 sequence (Q09472 2-2414 limits assumed, stated change not applied, further chain): as the sequence (Q09472 2-2414 limits assumed, stated change not applied) above
Chain of 6xHis-p300-BRD (active motif #31372) (Q09472 1040-1161 limits assumed): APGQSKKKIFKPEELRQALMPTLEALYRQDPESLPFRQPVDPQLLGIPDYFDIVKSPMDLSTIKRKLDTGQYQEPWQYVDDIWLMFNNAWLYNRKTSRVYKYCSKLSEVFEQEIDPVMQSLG

Regarding `CNC(=O)Nc1ccc2c(c1)CC[C@@]21OC(=O)N(CC(=O)N(Cc2ccc(F)cc2)[C@@H](C)C(F)(F)F)C1=O` [A485, reference compound], the “effect of co-treatment on AceTAG-1 induced p21 expression” value in assay [1] was “blocked”.

Consider `CC[C@H](C(=O)N1CCCC[C@H]1C(=O)O[C@H](CCc1ccc(OC)c(OC)c1)c1cccc(OCC(=O)NCCOCCOCCOCCC(=O)NCCOc2ccc(CCc3nc4cc(-c5c(C)noc5C)ccc4n3CCN3CCOCC3)cc2)c1)c1cc(OC)c(OC)c(OC)c1` [AceTAG-2, (R)-3-(3,4-dimethoxyphenyl)-1-(3-((18-(4-(2-(5-(3,5-dimethylisoxazol-4-yl)-1-(2-morpholinoethyl)-1H-benzo[d]imidazol-2-yl)ethyl)phenoxy)-2,15-dioxo-6,9,12-trioxa-3,16-diazaoctadecyl)oxy)phenyl)propyl (S)-1-((S)-2-(3,4,5-trimethoxyphenyl)butanoyl)piperidine-2-carboxylate], for which, at H3.3-FKBP12^F36V, the “acetylation of H3.3” value is recorded as “significant acetylation of H3.3”.

Turning to `CC[C@H](C(=O)N1CCCC[C@H]1C(=O)O[C@H](CCc1ccc(OC)c(OC)c1)c1cccc(OCC(=O)NCCCCCCCC(=O)NCCOc2ccc(CCc3nc4cc(-c5c(C)noc5C)ccc4n3CCN3CCOCC3)cc2)c1)c1cc(OC)c(OC)c(OC)c1` [AceTAG-3, (R)-3-(3,4-dimethoxyphenyl)-1-(3-(2-((8-((2-(4-(2-(5-(3,5-dimethylisoxazol-4-yl)-1-(2-morpholinoethyl)-1H-benzo[d]imidazol-2-yl)ethyl)phenoxy)ethyl)amino)-8-oxooctyl)amino)-2-oxoethoxy)phenyl)propyl (S)-1-((S)-2-(3,4,5-trimethoxyphenyl)butanoyl)piperidine-2-carboxylate], the “acetylation of H3.3” value on H3.3-FKBP12^F36V is reported as “significant acetylation of H3.3”.

For `CC[C@H](C(=O)N1CCCC[C@H]1C(=O)OC(CCc1ccc(OC)c(OC)c1)c1cccc(OCC(=O)NCCCCCCCC(=O)NCCOc2ccc(CCc3nc4cc(-c5c(C)noc5C)ccc4n3CCN3CCOCC3)cc2)c1)c1cc(OC)c(OC)c(OC)c1` (some centres unmarked) [AceTAG-4], the “acetylation of H3.3” value on H3.3-FKBP12^F36V was “significant acetylation of H3.3”.

On to `CCCNC(=O)COc1cccc([C@@H](CCc2ccc(OC)c(OC)c2)OC(=O)[C@@H]2CCCCN2C(=O)[C@@H](CC)c2cc(OC)c(OC)c(OC)c2)c1` [FKBP-c, (R)-3-(3,4-dimethoxyphenyl)-1-(3-(2-oxo-2-(propylamino)ethoxy)phenyl)propyl (S)-1-((S)-2-(3,4,5-trimethoxyphenyl)butanoyl)piperidine-2-carboxylate], for which the “effect of co-treatment on AceTAG-1 induced p53 acetylation” value in assay [2] is on record as “blockade of induced acetylation”. Further, the “effect of co-treatment on AceTAG-1 induced RelA acetylation” value in assay [3] is recorded as “blockade of induced acetylation”. Further, the “effect of co-treatment on AceTAG-1 induced acetylation of H3.3-FKBP12^F36V” value on H3.3-FKBP12^F36V (625 nM AceTAG-1 with 50 μM FKBP ligand or 1 μM A485, 2 hr, FIG. 4D) is given as “blocked”. Also, the “effect of co-treatment on AceTAG-1 induced p21 expression” value in assay [1] was “blocked”. In addition, the “p21 expression level with ligand alone” value in assay [1] (3 μM, compared to 3 μM AceTAG-1, FIG. 7E) is given as “neither p300 nor FKBP ligand alone increases p21 expression level”.

As to `O=C(CCCCCCC(=O)Nc1ccccc1)NO` [SAHA, Vorinostat, reference compound], in assay [4], the “number of proteins with increased acetylation relative to DMSO” value is on record as ~30 proteins.

For “GST-FKBP12^F36V (from UniProt P62942 2-108)”, in assay [5], the AceTAG-1 concentration at maximum ternary complex formation came out at 1 µM.
